Measurements: patent EP4670719A1, “PHARMACEUTICAL COMPOSITION OF BENZO NITROGEN HETEROAROMATIC RING DERIVATIVE AND USE THEREOF IN MEDICINE” (Haisco Pharmaceutical Group Co., Ltd., priority 2023, dated 2024)

What was measured:
[1] = i.g. (10 mg/kg)
[2] = tested on: complement alternative pathway; assay: Test of inhibitory effect on the complement alternative pathway (IBL alternative pathway kit, LPS-coated plate); assay type: biochemical, healthy volunteers; settings: inhibiting the alternative pathway; diluted serum, 30 min pretreatment, 1 h at 37°C
Procedure: The inhibitory effect of the compounds on the complement alternative pathway was detected using the IBL alternative pathway kit (COMPL AP330 RUO). Serum from healthy volunteers was collected and 1 portion was diluted with a buffer of 20 mM EDTA in gelatin (0.15 mM CaCl2, 141 mM NaCl, 4.5 mM MgCl2, 4.2 mM HEPES, and 0.1% gelatin at pH 7.4) to 50% (v/v), and 1 portion was diluted to 50% (v/v) with a buffer of 20 mM EGTA in gelatin. The compounds were prepared in DMSO to a working solution 100 times the final concentration. Before use, 50% of the above serum was diluted 1/18 with an AP diluent in the kit. 1 part of the compound working solution (v/v) or DMSO (positive control PC) was added to 99 parts of the diluted serum containing EGTA for pretreatment for 30 min, and 1 part of DMSO (v/v) was added to 99 parts of the diluted serum containing EDTA, as negative control (NC). The serum pretreated with the above compounds (or DMSO) was added at […] to an LPS-coated 96-well plate and incubated at 37°C for 1 h, and the plate was washed 3 times with washing solution in the kit, and the conjugated chromogenic substrate was added according to the instruction in the kit, and the absorbance was read at 405 nm with a microplate reader. The inhibitory activity of the compounds on alternative pathway was calculated using the following formula. […]

Structure (SMILES)	AUC0-24 h ([1]; rat plasma)	Cmax ([1]; rat plasma)	T1/2 ([1]; rat plasma)	Tmax ([1]; rat plasma)	F% ([1]; rats)	IC50 [2]
CCO[C@H]1CCN(Cc2c(OC)cc(C)c3[nH]ccc23)[C@H](c2ccc(C(=O)O)cc2)C1 [LNP023]	9867 ng·h/mL	867 ng/mL	3.39 h	3.5 h	49%	
[2H]C([2H])([2H])Oc1cc(C)c2[nH]ccc2c1CN1CC[C@@H](C2CC2)C[C@H]1c1ccc(C(=O)O)cc1 [Trifluoroacetate of compound 1]						< 0.2 µM
COc1cc(C)c2[nH]ccc2c1CN1CC[C@@H](C2CC2)C[C@H]1c1ccc(C(=O)O)cc1 [Trifluoroacetate of compound 2]						< 0.2 µM
